For test [1], the target named is Somatostatin receptor type 1 (Homo sapiens, UniProt P30872). Briefly: In vitro inhibition of [125I][Leu8,D-Trp22,Tyr25] somatostatin 28 binding to human somatostatin receptor type 1 expressed in CHO-K1 cells; (n=3).
Test [2] addresses Somatostatin receptor type 5 (Homo sapiens, UniProt P35346). In words: In vitro inhibition of [125I][Leu8,D-Trp22,Tyr25] somatostatin 28 binding to human somatostatin receptor type 5 expressed in CHO-K1 cells; (n=3).

Somatostatin receptor type 5, sequence (P35346 whole entry): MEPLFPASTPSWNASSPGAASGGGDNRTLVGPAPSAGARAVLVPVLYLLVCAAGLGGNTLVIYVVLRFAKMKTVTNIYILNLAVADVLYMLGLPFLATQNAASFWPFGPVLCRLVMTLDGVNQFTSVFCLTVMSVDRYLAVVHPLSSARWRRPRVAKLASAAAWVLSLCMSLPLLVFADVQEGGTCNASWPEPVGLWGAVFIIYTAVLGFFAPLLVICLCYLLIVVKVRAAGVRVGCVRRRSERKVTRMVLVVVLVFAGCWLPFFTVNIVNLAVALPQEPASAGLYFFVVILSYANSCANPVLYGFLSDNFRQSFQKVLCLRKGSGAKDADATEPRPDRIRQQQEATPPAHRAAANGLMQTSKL
Somatostatin receptor type 1, sequence (P30872 whole entry): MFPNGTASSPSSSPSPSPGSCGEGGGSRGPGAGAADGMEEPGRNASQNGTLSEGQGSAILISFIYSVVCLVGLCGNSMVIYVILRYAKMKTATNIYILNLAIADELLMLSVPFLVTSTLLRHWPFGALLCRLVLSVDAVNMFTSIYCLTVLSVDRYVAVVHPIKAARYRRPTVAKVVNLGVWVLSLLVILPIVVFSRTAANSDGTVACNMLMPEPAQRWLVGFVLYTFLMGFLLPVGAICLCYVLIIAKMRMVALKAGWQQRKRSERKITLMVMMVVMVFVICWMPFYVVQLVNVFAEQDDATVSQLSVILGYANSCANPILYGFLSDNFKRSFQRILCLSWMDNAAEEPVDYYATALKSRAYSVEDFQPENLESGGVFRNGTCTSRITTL

What is called IC50 is the concentration needed to halve the response being measured. On to `C[C@@H](O)[C@H](NC(=O)[C@@H]1CSSC[C@H](NC(=O)[C@H](N)Cc2ccccc2)C(=O)N[C@@H](Cc2ccc(O)c(I)c2)C(=O)N[C@H](Cc2c[nH]c3ccccc23)C(=O)N[C@@H](CCCCN)C(=O)N[C@@H]([C@@H](C)O)C(=O)N1)C(=O)O` [4-[(4R,7S,10S,13R,16S)-19-(2-azaniumyl-3-phenylpropanamido)-4-{[(1S)-1-carboxy-2-hydroxypropyl]carbamoyl}-16-[(4-hydroxy-3-iodophenyl)methyl]-7-(1-hydroxyethyl)-13-(1H-indol-3-ylmethyl)-6,9,12,15,18-pentaoxo-1,2-dithia-5,8,11,14,17-pentaazacycloicosan-10-yl]butan-1-aminium], for which the IC50 in test [1] was greater than 10 µM.
Turning to `C[C@@H](O)[C@H](NC(=O)[C@@H]1CSSC[C@H](NC(=O)[C@@H](Cc2ccccc2)NC(=O)CN2CCN(CC(=O)O)CCN(CC(=O)O)CCN(CC(=O)O)CC2)C(=O)N[C@@H](Cc2ccc(O)cc2)C(=O)N[C@H](Cc2c[nH]c3ccccc23)C(=O)N[C@@H](CCCCN)C(=O)N[C@@H]([C@@H](C)O)C(=O)N1)C(=O)O`, the IC50 in test [2] stood at 0.377 µM.
